Assay: xn = mol fraction of the nth substance listed
Conditions: 101 kPa, Liquid; for electrical conductivity: Crison GLP 31+ conductivimeter

CCCCCCCC[n+]1ccn(C)c1.F[B-](F)(F)F [1-methyl-3-octylimidazolium tetrafluoroborate] + CCO
Conditions | electrical conductivity [S/m] | viscosity [mPa·s]
288.15 K, x2 = 0 | – | 686
288.15 K, x2 = 0.0891 | – | 428.3
288.15 K, x2 = 0.1902 | – | 244.7
288.15 K, x2 = 0.2927 | – | 141
288.15 K, x2 = 0.3914 | – | 73.44
288.15 K, x2 = 0.4911 | – | 45.24
288.15 K, x2 = 0.5938 | – | 26.02
288.15 K, x2 = 0.6979 | – | 14.53
288.15 K, x2 = 0.798 | – | 7.219
288.15 K, x2 = 0.9002 | – | 3.499
298.15 K, x2 = 0 | 0.069 | 337.4
298.15 K, x2 = 0.0891 | – | 224.8
298.15 K, x2 = 0.1236 | 0.108 | –
298.15 K, x2 = 0.183 | 0.143 | –
298.15 K, x2 = 0.1902 | – | 140.9
298.15 K, x2 = 0.2395 | 0.191 | –
298.15 K, x2 = 0.2898 | 0.239 | –
298.15 K, x2 = 0.2927 | – | 83.3
298.15 K, x2 = 0.3359 | 0.291 | –
298.15 K, x2 = 0.3914 | – | 46.35
298.15 K, x2 = 0.4147 | 0.396 | –
298.15 K, x2 = 0.4783 | 0.5 | –
298.15 K, x2 = 0.4911 | – | 29.85
298.15 K, x2 = 0.5316 | 0.59 | –
298.15 K, x2 = 0.5759 | 0.672 | –
298.15 K, x2 = 0.5938 | – | 17.84
298.15 K, x2 = 0.6135 | 0.737 | –
298.15 K, x2 = 0.6455 | 0.786 | –
298.15 K, x2 = 0.6799 | 0.834 | –
298.15 K, x2 = 0.6979 | – | 10.39
298.15 K, x2 = 0.7089 | 0.872 | –
298.15 K, x2 = 0.7381 | 0.911 | –
298.15 K, x2 = 0.7667 | 0.918 | –
298.15 K, x2 = 0.7922 | 0.926 | –
298.15 K, x2 = 0.798 | – | 5.362
298.15 K, x2 = 0.8138 | 0.92 | –
298.15 K, x2 = 0.832 | 0.903 | –
298.15 K, x2 = 0.8472 | 0.882 | –
298.15 K, x2 = 0.8663 | 0.844 | –
298.15 K, x2 = 0.8814 | 0.8 | –
298.15 K, x2 = 0.8938 | 0.762 | –
298.15 K, x2 = 0.9002 | – | 2.764
298.15 K, x2 = 0.9087 | 0.696 | –
298.15 K, x2 = 0.9197 | 0.639 | –
298.15 K, x2 = 0.9307 | 0.583 | –
298.15 K, x2 = 0.9409 | 0.526 | –
298.15 K, x2 = 0.9502 | 0.454 | –
298.15 K, x2 = 0.9586 | 0.393 | –
298.15 K, x2 = 0.9692 | 0.304 | –
298.15 K, x2 = 0.9771 | 0.239 | –
298.15 K, x2 = 0.9851 | 0.155 | –
298.15 K, x2 = 0.9915 | 0.0924 | –
308.15 K, x2 = 0 | – | 187.7
308.15 K, x2 = 0.0891 | – | 132.1
308.15 K, x2 = 0.1902 | – | 85.86
308.15 K, x2 = 0.2927 | – | 53.62
308.15 K, x2 = 0.3914 | – | 31.24
308.15 K, x2 = 0.4911 | – | 20.79
308.15 K, x2 = 0.5938 | – | 12.87
308.15 K, x2 = 0.6979 | – | 7.756
308.15 K, x2 = 0.798 | – | 4.135
308.15 K, x2 = 0.9002 | – | 2.206
318.15 K, x2 = 0 | – | 112.1
318.15 K, x2 = 0.0891 | – | 81.45
318.15 K, x2 = 0.1902 | – | 56.18
318.15 K, x2 = 0.2927 | – | 36.49
318.15 K, x2 = 0.3914 | – | 22.1
318.15 K, x2 = 0.4911 | – | 15.44
318.15 K, x2 = 0.5938 | – | 9.671
318.15 K, x2 = 0.6979 | – | 6.015
318.15 K, x2 = 0.798 | – | 3.283
318.15 K, x2 = 0.9002 | – | 1.802

Reference: the NIST ThermoML archive (doi:10.1021/je100687x)
